Consider two substances from patent US10351523B2, “UV-absorbing compounds with at least one reactive hydrogen” (ISP INVESTMENTS LLC, priority 2013, dated 2019).

This series is described as follows: Water solubility of the isolated powder (observation after work-up). The settings on record: isolated lemon-yellow powder. In kind it is physicochemical. How it is done:
To a premixed solution of 6.0 g ethylene diamine in 30 ml ethanol was added 30.8 g of 5-benzoyl-4-hydroxy-2-methoxy benzenesulfonic acid and stirred well until a solution was formed. The mixture was heated to 130° C. for 16 hours and then cooled to 70° C. The ethanol residue was flashed off in a vacuum oven at 70° C.
To a premixed solution of 11.6 g hexamethylene diamine in 40 g ethanol was added 30.8 g of 5-benzoyl-4-hydroxy-2-methoxy benzenesulfonic acid and stirred well until a solution was formed. The mixture was heated to 130° C. for 16 hours and then cooled to 70° C. The ethanol residue was flashed off in a vacuum oven at 70° C.
An amount of 7.4 g propylene diamine, 30.8 g of 5-benzoyl-4-hydroxy-2-methoxy benzenesulfonic acid, and 30 ml of 1:1 ethanol-water mixture was stirred well until a clear solution was obtained. […] The ethanol residue was flashed off in a vacuum oven at 70° C.

As for “2-hydroxy-4-methoxy-5-(N-3-aminopropyl)sulfonamido-4′-methylbenzophenone [Example 5]”, the solubility in water entry is “insoluble in water”.

On to “2-hydroxy-4-methoxy-5-(N-6-aminohexyl) sulfonamido-4′-methylbenzophenone [Example 4]”, for which the solubility in water result is recorded as “insoluble in water”.
